Key:
[1] = Polydispersity index (PDI) of lipid nanoparticle (dynamic light scattering); assay type: physicochemical
Experimental: Unless indicated otherwise, all PDIs referred to herein are the PDI of the fully formed nanoparticle, as measured by dynamic light scattering on a Malvern Zetasizer. The nanoparticle sample was diluted in phosphate buffered saline (PBS) so that the count rate was approximately 200-400 kcts. The data is presented in Tables 4 and 5 as a weighted average of the intensity measure.

[2] = Measurement of mRNA encapsulation (Quant-iT Ribogreen); assay type: physicochemical; details: leptin mRNA in lipid nanoparticles (cationic lipid, DSPC, cholesterol, stealth lipid)
Experimental: All equipment and disposable supplies were certified free of RNase activity by the manufacturer or rendered RNase free by use of the RNaseZap reagent (LifeTechnologies). mRNA was encapsulated at a cationic lipid amine to mRNA phosphate (N:P) molar ratio of 4:1. Lipids (cationic lipid, DSPC, cholesterol and lipidated PEG or stealth lipid) were dissolved in ethanol. The molar ratios were […], respectively. The mixture was sonicated briefly, then gently agitated for 5 minutes and then maintained at 37° C. until use. mRNA was exchanged into citrate buffer pH 5.8-6.0 by use of Amicon Ultra-15 centrifugal concentrators, and the final concentration was adjusted to 0.5 mg/ml and held at 37° C. until use. An equal volume of lipids in ethanol, mRNA in citrate buffer, and citrate buffer alone were drawn into disposable syringes. Tubing leading from syringes containing lipids and mRNA are attached to the T junction, and tubing leading from the syringe containing citrate buffer alone was paired with the tubing exiting the T-junction over a collection vessel containing a stir bar on an active stir plate. Syringes were placed in a syringe pump set to expel contents at a flow rate of 1 ml per minute.
The pump was activated, and the collected mRNA in lipid nanoparticles was transferred to SnakeSkin dialysis tubing (10,000 MWCO, Thermo Scientific). Material was dialyzed against RNAse- and pyrogen-free 1× phosphate buffered saline overnight at 4° C.
Percent encapsulation of mRNA in lipid nanoparticles was determined using the Quant-iT Ribogreen RNA Assay kit (Life Technologies). The LNP-mRNA suspension was assayed in buffer (mRNA outside the particle), and buffer plus Triton X-100 detergent (total mRNA). The difference calculated was the mRNA inside the particle. A 1000 ng/mL stock from the RNA provided in the kit was prepared and used to generate a standard curve (0 ng/ml, 15.63-1000 ng/ml) in TE and TE+0.75% Triton X-100. LNP-mRNA samples in TE buffer and TE buffer+0.75% Triton X-100 were prepared with appropriate dilution so that reading was in the range of standard curve (400-2,000 fold). In a 384-well plate (Costar non-treated #3573) 0.04 ml of standard (in duplicate) or sample (in triplicate) were added per well. Ribogreen reagent was diluted 240-fold in TE buffer and added 0.06 ml per well. The contents of wells were mixed and fluorescence was measured (excitation=480 nm, emission=520 nm). Background values (no RNA) were subtracted from standard and test sample values and the concentrations of RNA were determined in the samples using the standard curves. The percent encapsulation of the sample was determined by dividing the difference in concentrations between sample+triton and sample in buffer alone by the sample+triton concentration.

[3] = Particle size of lipid nanoparticle (dynamic light scattering, Malvern Zetasizer); assay type: physicochemical
In short: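 Sizes are average diameters of fully formed nanoparticles measured by dynamic light scattering. Samples were diluted in PBS to a count rate of about 200–400 kcts. Values are intensity-weighted Z-average sizes.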

[4] = test system: human leptin; assay: Mouse intravenous tail vein injection of modified synthetic leptin mRNA, human leptin ELISA; assay type: in vivo, C57BL/6 mouse; details: human leptin in mouse plasma, 10 μg leptin mRNA
Experimental: Before the tail vein injection, mouse body weights were recorded and diet weighted, with mice grouped according to their body weights. Mice were prepared by warming them under a heating lamp for ˜2 minutes, with the mice about 12 inches from heat lamp.
For the tail vein injection procedure, the mice were placed in a restrainer and their tails cleaned with 70% alcohol. A 27 gauge needle (Becton Dickinson, Catalogue #305109) connected with a 1 ml syringe (Becton Dickinson, Catalogue #309659) was inserted into the tail vein, with bevel facing up, and the syringe plunger was pulled backwards to ensure blood is drawn into the syringe. The desired volume of modified synthetic leptin mRNA was injected by hand with moderate pressure and speed. The needle was then withdrawn and bleeding stopped by adding pressure to injection site with gauze.
Single housed, 8-9 week old, male C57BL/6 mice were used for the in vivo study. FPLC purified modified synthetic leptin mRNA (SEQ ID NO: 5) in which the uridines were substituted with pseudouridine was packaged in a cationic lipid (N:P molar ratio=8:1) and then were diluted in injectable saline at a dose of 10 μg per average group body weight.
On day 0, animals were weighed and sorted according to average body weight. Mice were dosed, and food intake (FI) was recorded, on each of days 1-7 and days 9, 11, and 16.
Human leptin in mouse plasma was measured by ELISA. Antibodies purchased from the R&D Systems duoset (Cat# DY398E, part#840279 for capture antibody and part#840280 for detection antibody) were reconstituted using PBS and titered, again using PBS. The capture antibody was coated at 4 ug/ml in 30 ul/well on a white Nunc® Maxisorp 384 well plate (Cat#460372). After an overnight incubation at room temperature the capture antibody was aspirated and the plate blocked for 2 hours at room temperature with 90 ul/well of KPL milk blocker (Cat#50-82-00). Once the incubation was completed the plate was aspirated and recombinant standards and samples were added to the plate at 30 ul/well for 2 hours at 37° C. while shaking at 600 rpm. Sample/standard dilutions were made using casein sample diluent. Washing/aspiration 3 times with 100 ul/well followed, using Teknova plate wash solution (Cat# P1192). Next, detection antibody was diluted using casein detection antibody diluent to 12.5 ng/ml and added at 30 ul/well for 2 hours room temperature. After this incubation, the plate was washed again and a solution of poly-streptavidin-HRP (Cat#21140) at a 1:1250 dilution in HRP dilution buffer was added to each well (30 ul/well) and incubated for 30 minutes room temperature. A final wash/aspiration removed the HRP solution and a chemiluminescent substrate was added at 30 ul/well (Cat#1859678 & 1859679). The plate was quickly read using a SpectramaxM5 plate reader with a 50 ms integration time. The dynamic range of the ELISA is from 100-2,000 pg/ml (6.25-125 pM) of human leptin.

[5] = FVII siRNA LNP, Chol/DSPC/S010, molar ratio 45/44/9/2
[6] = leptin mRNA lipid nanoparticles
[7] = FVII siRNA LNP, Chol/DSPC/S010, molar ratio 45/44/9/2, Z-average

Compound	PDI [1, 5]	PDI [1, 6]	% encapsulation [2] [%]	Size (nm) [3, 7] [nm]	Size (nm) [3, 6] [nm]	Leptin expression IV-C57BI/6, 24 h [4] [ng/mL]	Leptin expression IV-C57BI/6 (ng/mL), 6 h ([4]; 6 h)
CCCCCCCCCCCCOC(=O)CCCCCOc1cc(CN(C)C)cc(OCCCCCC(=O)OCCCCCCCCCCCC)c1 [Example 90, didodecyl 6,6′-((5-((dimethylamino)methyl)-1,3-phenylene)bis(oxy))dihexanoate]	0.073	0.090	80.9	87.54	164.7	0.74	
CCCCCCCC(=O)OCCCCCCCCCCOC(=O)CCC(=O)OCc1cc(COC(=O)CCC(=O)OCCCCCCCCCCOC(=O)CCCCCCC)cc(CN(C)C)c1 [Example 78, O,O′-((5-((dimethylamino)methyl)-1,3-phenylene)bis(methylene))bis(10-(octanoyloxy)decyl)disuccinate]	0.043	0.150	71.1	178.2	164.0	0.96	
CCCCCCCCCOC(=O)CCCCCCC(=O)OCc1cc(COC(=O)CCCCCCC(=O)OCCCCCCCCC)cc(CN(C)C)c1 [Example 79, O′^1,O^1-((5-((dimethylamino)methyl)-1,3-phenylene)bis(methylene)) 8-dinonyl dioctanedioate]		0.116	91.6		140.5		1.36 (6 h) ng/mL
